The record followed here is patent publication US20240352016A1, “A CYCLIN-DEPENDENT KINASE INHIBITOR” (TAIZHOU EOC PHARMA CO., LTD., priority 2021, published 2024).

Each structure is given as a SMILES string. Counter-ions that a name gives are not always drawn. A value given as a limit tells only on which side of the number the result lay.

T1 sequence (P50613 whole entry): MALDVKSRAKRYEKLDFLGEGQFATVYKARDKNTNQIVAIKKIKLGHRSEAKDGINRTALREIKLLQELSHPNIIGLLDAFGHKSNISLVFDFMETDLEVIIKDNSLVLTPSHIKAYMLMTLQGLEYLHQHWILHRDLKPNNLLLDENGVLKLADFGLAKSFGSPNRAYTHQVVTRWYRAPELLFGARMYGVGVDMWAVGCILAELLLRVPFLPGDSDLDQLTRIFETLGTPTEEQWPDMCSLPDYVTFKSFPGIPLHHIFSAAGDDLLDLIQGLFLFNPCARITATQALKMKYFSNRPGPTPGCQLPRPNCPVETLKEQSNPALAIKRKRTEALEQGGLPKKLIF
T1 sequence (P51946 whole entry partner): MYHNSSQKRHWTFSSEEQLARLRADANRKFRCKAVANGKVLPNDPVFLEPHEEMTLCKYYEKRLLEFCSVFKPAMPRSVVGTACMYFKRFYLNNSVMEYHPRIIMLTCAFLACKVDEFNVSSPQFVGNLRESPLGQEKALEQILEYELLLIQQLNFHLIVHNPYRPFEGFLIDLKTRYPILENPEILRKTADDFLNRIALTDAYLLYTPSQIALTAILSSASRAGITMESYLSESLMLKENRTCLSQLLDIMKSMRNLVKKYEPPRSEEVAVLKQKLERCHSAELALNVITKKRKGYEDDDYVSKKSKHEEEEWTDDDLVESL
T1 sequence (P51948 whole entry partner): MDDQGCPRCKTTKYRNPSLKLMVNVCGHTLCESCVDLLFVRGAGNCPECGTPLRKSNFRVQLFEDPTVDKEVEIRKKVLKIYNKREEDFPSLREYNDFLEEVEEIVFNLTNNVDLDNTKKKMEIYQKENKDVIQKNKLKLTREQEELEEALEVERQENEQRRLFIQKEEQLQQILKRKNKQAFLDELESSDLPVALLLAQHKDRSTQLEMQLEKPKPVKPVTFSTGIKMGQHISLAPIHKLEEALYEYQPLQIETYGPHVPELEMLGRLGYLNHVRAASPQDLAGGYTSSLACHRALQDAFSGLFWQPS

One assay addresses T1, CDK7/Cyclin H/MAT1 (Homo sapiens, UniProt P50613).
T1 construct: made in house; host or cells: insect cell
Description: CDK kinase activity mobility shift assay (MSA). It counts as biochemical.
Conditions: not given
Here is the method: Human CDKs, cyclins and other partner proteins were expressed in insect cell, purified individually, reconstituted and then purified to homogeneity before being used for kinase activity assay.
Kinase activity of CDKs were determined by mobility shift assay (MSA), in which the formation of a phosphorylated fluorescence-labelled peptide in reaction mixture was monitored through capillary electrophoresis in a microfluidic environment. […] The mixtures were incubated at 27° C. for 40 min before being quenched with 4 μl 80 mM EDTA, then read on a LabChip EZ Reader II (Caliper Life Science). IC50 of compound for CDKs was calculated by Prism (GraphPad) using a four-parameter nonlinear curve fit.
`CC(C)n1cnc2c(NCc3ccccc3-n3cccn3)nc(N3CCNCC3)nc21` [Compound I-28, N-(2-(1H-pyrazol-1-yl)benzyl)-9-isopropyl-2-(piperazin-1-yl)-9H-purin-6-amine]: the IC50 (as a rule, the concentration needed to halve the response being measured) is less than 100 nM.

The assay is the same for the next values; noted with them: The CDK may be CDK7; mobility shift assay, 2 mM ATP, 3 nM CDK/Cyclin, 27° C. for 40 min; read-out: IC50 (CDK inhibition).
For `CC(C)n1cnc2c(NCc3ccccc3-n3cccn3)nc(N[C@H]3CCCNC3)nc21` [Compound I-13, (S)-N6-(2-(1H-pyrazol-1-yl)benzyl)-9-isopropyl-N2-(piperidin-3-yl)-9H-purine-2,6-diamine], the IC50 lay in the range of 100 to 500 nM.

Regarding `CC(C)n1cnc2c(NCc3ccccc3-n3cccn3)nc(N3CCC(C4CCNCC4)CC3)nc21` [Compound I-5, N-(2-(1H-pyrazol-1-yl)benzyl)-2-([4,4′-bipiperidin]-1-yl)-9-isopropyl-9H-purin-6-amine hydrochloride], the IC50 lay within 100 to 500 nM.

Take `CCN(CC)C1CCN(c2nc(NCc3ccccc3-n3cccn3)c3ncn(C(C)C)c3n2)CC1` [Compound I-20, 2-[4-(diethylamino)-1-piperidyl]-9-isopropyl-N-[(2-pyrazol-1-ylphenyl)methyl]purin-6-amine]: the IC50 is less than 100 nM.

In the case of `CC(C)n1cnc2c(NCc3ccccc3-n3cccn3)nc(N3CCC(CO)CC3)nc21` [Compound I-40, (1-(6-((2-(1H-pyrazol-1-yl)benzyl)amino)-9-isopropyl-9H-purin-2-yl)piperidin-4-yl)methanol], the IC50 was 500 to 1000 nM.

Turning to `CC(C)n1cnc2c(NCc3ccccc3-n3cccn3)nc(N[C@H]3CC[C@H](O)CC3)nc21` [Compound I-39, (1R,4R)-4-((6-((2-(1H-pyrazol-1-yl)benzyl)amino)-9-isopropyl-9H-purin-2-yl)amino)cyclohexan-1-ol], the concentration for half-maximal inhibition (IC50) was 500 to 1000 nM.

Regarding `CC(C)n1cnc2c(NCc3ccccc3-n3cccn3)nc(N3CCC(C(=O)N(C)C)CC3)nc21` [Compound I-15, 1-(6-((2-(1H-pyrazol-1-yl)benzyl)amino)-9-isopropyl-9H-purin-2-yl)-N,N-dimethylpiperidine-4-carboxamide], the IC50 was more than 1000 nM.

Consider `CC(C)n1cnc2c(NCc3ccccc3-n3cccn3)nc(N3CCC(CN)C3)nc21` (stereo not shown) [Compound I-34, N-(2-(1H-pyrazol-1-yl)benzyl)-2-(3-(aminomethyl)pyrrolidin-1-yl)-9-isopropyl-9H-purin-6-amine], for which the IC50 was in the range of 100 to 500 nM.

For `CC(C)c1n[nH]c2c(NCc3ccccc3-n3cccn3)nc(N3CCC(N)CC3)nc12` [II-1, N-(2-(1H-pyrazol-1-yl)benzyl)-5-(4-aminopiperidin-1-yl)-3-isopropyl-1H-pyrazolo[4,3-d]pyrimidin-7-amine hydrochloride], the IC50 is less than 100 nM.

In the case of `CC(C)n1cnc2c(NCc3c(F)cccc3-n3cccn3)nc(N3CCC(N)CC3)nc21` [Compound I-24, 2-(4-aminopiperidin-1-yl)-N-(2-fluoro-6-(1H-pyrazol-1-yl)benzyl)-9-isopropyl-9H-purin-6-amine hydrochloride], the IC50 is less than 100 nM.

`CC(C)n1cnc2c(NCc3ccccc3-n3ccc(CO)n3)nc(N3CCC(N)CC3)nc21` [Compound I-1, (1-(2-(((2-(4-aminopiperidin-1-yl)-9-isopropyl-9H-purin-6-yl)amino)methyl)phenyl)-1H-pyrazol-3-yl)methanol]: the IC50 was less than 100 nM.

Consider `CC(C)n1cnc2c(NCc3ccccc3-n3cccn3)nc(NCC3(O)CCNCC3)nc21` [Compound I-14, 4-(((6-((2-(1H-pyrazol-1-yl)benzyl)amino)-9-isopropyl-9H-purin-2-yl)amino)methyl)piperidin-4-ol trihydrochloride], for which the IC50 lay within 100 to 500 nM.

Take `CC(C)n1cnc2c(NCc3ccccc3-n3cccn3)nc(N3CCC(O)(CN(C)C)CC3)nc21` [Compound I-29, 1-(6-((2-(1H-pyrazol-1-yl)benzyl)amino)-9-isopropyl-9H-purin-2-yl)-4-((dimethylamino)methyl)piperidin-4-ol]: the IC50 lay in the range of 100 to 500 nM.

Consider `CC(C)c1n[nH]c2c(NCc3ccccc3-n3cccn3)nc(NC3CCNCC3)nc12` [II-2, N7-(2-(1H-pyrazol-1-yl)benzyl)-3-isopropyl-N5-(piperidin-4-yl)-1H-pyrazolo[4,3-d]pyrimidine-5,7-diamine], for which the IC50 was less than 100 nM.

In the case of `CC(C)n1cnc2c(NCc3ccccc3-n3cccn3)nc(N3CCC(CN)CC3)nc21` [Compound I-41, N-(2-(1H-pyrazol-1-yl)benzyl)-2-(4-(aminomethyl)piperidin-1-yl)-9-isopropyl-9H-purin-6-amine], the IC50 fell in the range of 100 to 500 nM.

For `CC(C)n1cnc2c(NCc3ccccc3-n3cccn3)nc(N3CCC(CN(C)C)CC3)nc21` [Compound I-32, N-(2-(1H-pyrazol-1-yl)benzyl)-2-(4-((dimethylamino)methyl)piperidin-1-yl)-9-isopropyl-9H-purin-6-amine], the IC50 lay within 100 to 500 nM.

For `CC(C)n1cnc2c(NCc3ccccc3-n3cccn3)nc(N3CC[C@H](N)C3)nc21` [Compound I-9, (S)—N-(2-(1H-pyrazol-1-yl)benzyl)-2-(3-aminopyrrolidin-1-yl)-9-isopropyl-9H-purin-6-amine], the IC50 is less than 100 nM.

Consider `CC(C)n1cnc2c(NCc3c(Cl)cccc3-n3ccc(C(C)(C)O)n3)nc(NC3CCNCC3)nc21` [Compound I-18, 2-[1-[3-chloro-2-[[[9-isopropyl-2-(4-piperidylamino)purin-6-yl]amino]methyl]phenyl]pyrazol-3-yl]propan-2-ol], for which the IC50 was less than 100 nM.

For `CC(C)n1cnc2c(NCc3ccccc3-n3cccn3)nc(N3CCC(C(N)=O)CC3)nc21` [Compound I-38, 1-(6-((2-(1H-pyrazol-1-yl)benzyl)amino)-9-isopropyl-9H-purin-2-yl)piperidine-4-carboxamide], the 50% inhibitory concentration (IC50) was in the range of 100 to 500 nM.

`CC(C)n1cnc2c(NCc3ccccc3-n3cccn3)nc(NC3CCNCC3)nc21` [Compound I-30, N6-(2-(1H-pyrazol-1-yl)benzyl)-9-isopropyl-N2-(piperidin-4-yl)-9H-purine-2,6-diamine hydrochloride]: the IC50 was in the range of 100 to 500 nM.

Take `CC(C)n1cnc2c(NCc3ccccc3-n3cccn3)nc(N3CCC(O)(Cn4cc(C(F)(F)F)cn4)CC3)nc21` [Compound I-35, 1-(6-((2-(1H-pyrazol-1-yl)benzyl)amino)-9-isopropyl-9H-purin-2-yl)-4-((4-(trifluoromethyl)-1H-pyrazol-1-yl)methyl)piperidin-4-ol]: the IC50 is more than 1000 nM.

Turning to `CC(C)n1cnc2c(NCc3ccccc3-n3cccn3)nc(NC(=O)C3CCNCC3)nc21` [Compound I-21, N-(6-((2-(1H-pyrazol-1-yl)benzyl)amino)-9-isopropyl-9H-purin-2-yl)piperidine-4-carboxamide], the IC50 was more than 1000 nM.

For the molecule `CC(C)n1cnc2c(NCc3ccccc3-n3cccn3)nc(N3CCC[C@@H](N)C3)nc21` [Compound I-11, (R)—N-(2-(1H-pyrazol-1-yl)benzyl)-2-(3-aminopiperidin-1-yl)-9-isopropyl-9H-purin-6-amine], the IC50 is less than 100 nM.

On to `NC1CCN(c2nc(NCc3ccccc3-n3cccn3)c3ncn(C4CCCC4)c3n2)CC1` [Compound I-25, N-(2-(1H-pyrazol-1-yl)benzyl)-2-(4-aminopiperidin-1-yl)-9-cyclopentyl-9H-purin-6-amine], for which the IC50 was less than 100 nM.

Take `c1ccc(-n2cccn2)c(CNc2nc(N3CCNCC3)nc3c2ncn3C2CCCC2)c1` [Compound I-27, N-(2-(1H-pyrazol-1-yl)benzyl)-9-cyclopentyl-2-(piperazin-1-yl)-9H-purin-6-amine]: the IC50 is less than 100 nM.

With `CC(C)n1cnc2c(NCc3ccccc3-n3ccc(C(C)(C)O)n3)nc(NC3CCNCC3)nc21` [Compound I-17, 2-(1-(2-(((9-isopropyl-2-(piperidin-4-ylamino)-9H-purin-6-yl)amino)methyl)phenyl)-1H-pyrazol-3-yl)propan-2-ol], the IC50 is less than 100 nM.

For `CC(C)n1cnc2c(NCc3ccccc3-n3cccn3)nc(N3CCC(N)C3)nc21` (stereo not shown) [Compound I-36, N-(2-(1H-pyrazol-1-yl)benzyl)-2-(3-aminopyrrolidin-1-yl)-9-isopropyl-9H-purin-6-amine], the IC50 was 100 to 500 nM.

With `CC(C)n1cnc2c(NCc3ccccc3-n3cccn3)nc(N3CCC(O)(Cn4cc(N)cn4)CC3)nc21` [Compound I-31, 1-(6-((2-(1H-pyrazol-1-yl)benzyl)amino)-9-isopropyl-9H-purin-2-yl)-4-((4-amino-1H-pyrazol-1-yl)methyl)piperidin-4-ol], the IC50 was in the range of 100 to 500 nM.

With `CC(C)n1cnc2c(NCc3ccccc3-n3cccn3)nc(N3CCC(N(C)C)CC3)nc21` [Compound I-26, N-(2-(1H-pyrazol-1-yl)benzyl)-2-(4-(dimethylamino)piperidin-1-yl)-9-isopropyl-9H-purin-6-amine], the IC50 is less than 100 nM.

For `CC(C)n1cnc2c(NCc3ccccc3-n3cccn3)nc(NC3CN4CCC3CC4)nc21` (stereo not shown) [Compound I-33, N6-(2-(1H-pyrazol-1-yl)benzyl)-9-isopropyl-N2-(quinuclidin-3-yl)-9H-purine-2,6-diamine], the IC50 fell in the range of 100 to 500 nM.

On to `CC(C)n1cnc2c(NCc3ccccc3-n3cccn3)nc(N3CCC(O)CC3)nc21` [Compound I-37, 1-(6-((2-(1H-pyrazol-1-yl)benzyl)amino)-9-isopropyl-9H-purin-2-yl)piperidin-4-ol], for which the IC50 fell in the range of 100 to 500 nM.
